Test results taken from paper PMC9609317, “Evaluation of Metabolism of a Defined Pesticide Mixture through Multiple In Vitro Liver Models” (Toxics, 2022).

Key:
[1] = tested on: induced pluripotent stem cell-derived hepatocytes (iHep) suspension; test: In vitro hepatocyte clearance in iHep suspension, targeted LC-MS/MS and GC-MS/MS; assay type: in vitro ADME, human; conditions: 1 µM equimolar mixture, approximate values
Procedure: (§1) Suspension assays using iHep were performed as previously detailed with slight modification. In brief, pre-differentiated iHep were suspended in iHep maintenance media and adjusted to the cell concentration of 1 × 10^6 cells/mL. A portion of the cell working stock was heated at 95 °C for five minutes to serve as negative control. Five hundred microliters of the chemical stock (20 chemicals, 2 or 10 µM each) were spiked in 500 µL of the cell working stock or heat-inactivated cell control to a final cell density of 5 × 10^5 cells/mL. Fifty microliters were removed subsequently at 0, 60, 120, and 240 min to individual 1.5 mL Eppendorf tubes for further sample extraction detailed below. Each experimental condition was replicated three times.
Sample extraction procedures and chromatographic conditions were previously reported in [34]. In brief, each sample (50 µL) was spiked with 10 µL of 10 µM internal standards, mixed with 100 µL of chilled acetonitrile, and then centrifuged at 10,000× g for 5 min. The supernatant was dried under vacuum using SpeedVac (Savant SPD1010, Beckman Coulter, Brea, CA, USA) and reconstituted with 50 µL of aqueous mobile phase prior to analyses. LC-MS/MS analysis was performed using 1290 Infinity II LC and 6470 triple quadrupole mass spectrometer (both instruments from Agilent Technologies, Santa Clara, CA, USA). Sample extract (10 µL) was chromatographed on a ZORBAX SSHD Eclipse Plus C18 column (3.0 × 50 mm, 1.8 µm, Cat No.: 959757-302; Agilent Technologies) with a guard column (2.1 × 5 mm, 1.8 µm, Cat No.: 821725-901; Agilent Technologies), and ionized using electrospray ionization. Analytical response was acquired in both positive and negative modes.
For positive ion compounds, mobile phases consisted of 0.1% formic acid in water (A) and 0.1% formic acid in methanol (B) using the following gradient: 2% B held for 1 min, B increased to 80% by 3 min, B increased to 95% by 4 min, B decreased to 2% by 5 min and held for 3 min for a total run time of 8 min per sample at a flow rate of 0.4 mL/min. For negative ion compounds, the LC gradient and flow rate were the same as in positive mode, except that mobile phase A was water and mobile phase B was acetonitrile.
Fifty microliters of media sample were spiked with 10 µL of 10 µM internal standards, mixed with 50 µL of methanol and 200 µL of pentane: diethyl ether (1:1 v/v), vortexed briefly, and then centrifuged at 600× g for 5 min. Organic layer supernatants were transferred to a 2 mL amber vial and concentrated under nitrogen prior to GC analysis. Detection of analytes was achieved using a 7890B GC and 7010B triple quadrupole mass spectrometer (both from Agilent Technologies). Samples were injected (1 µL) in splitless mode. Analytes were separated with a VF-5ms GC column (60 m × 250 µm × 0.25 µm, Cat No.: CP8960; Agilent Technologies) and ionized using electron ionization. The column head pressure was set at 21.5 psi (148,237 Pa) with a constant flow rate at 1.2 mL/min using helium gas. Initial column temperature was held at 70 °C for 5 min, increased to 150 °C at 50 °C/min, ramped to 280 °C at 4 °C/min, and then held […]. The total run time was 42.1 min. The injector temperature was set at 250 °C. The ion source and auxiliary transfer line temperatures were 300 °C. Electron multiplier voltage was set at 1884 V. Ultra-high purity nitrogen gas was used as the collision gas for all MS/MS experiments, and collision gas pressure was set at 16.8 psi (115,832 Pa).
In vitro hepatocyte clearance (Clin vitro) of each chemical was estimated by substrate depletion approach assuming first-order kinetics for compound elimination: Clin vitro = kV/N, where k = first-order elimination rate constant, V = incubation volume, and N = number of cells in the incubation. […]

[2] = tested on: induced pluripotent stem cell-derived hepatocytes (iHep) suspension; test: iHep suspension, nontargeted IMS-MS analysis (clearance, metabolite formation, mass balance); assay type: in vitro ADME, human; conditions: for CLHep average, Nontargeted Analyses (IMS-MS): 1µM mixture; for Level of metabolism through nontargeted methods: % remaining by IMS-MS
Procedure: as §1
All nontargeted analyses were performed using a 6560 IMS-QTOF MS (Agilent Technologies) as detailed previously. All individual standards for pesticide parent compounds (n = 20) and known metabolites (n = 10) were directly injected in triplicate into the electrospray ionization (ESI) source (positive and negative mode) and atmospheric pressure photo-ionization (APPI, negative mode only) to obtain collision cross section (CCS) and mass-to-charge ratio (m/z) values. Blanks were injected between standards to reduce the likelihood of carryover. For sample analyses, ESI was chosen as the optimal source to detect analytes in either positive or negative mode. During IMS-MS analyses, ions were passed through the inlet glass capillary, focused by a high-pressure ion funnel, and accumulated in an ion funnel trap. Next, ions were pulsed into the 78.24 cm-long IMS drift tube filled with nitrogen gas at a pressure of approximately 3.95 torr (527 Pa). Ions exiting the drift tube were refocused by a rear ion funnel prior to quadrupole time-of-flight (QTOF) MS detection. Detailed instrumental settings in ESI mode can be found in Table S1. Prior to instrumental analysis, the IMS-MS was tuned and a mass calibration was performed using Agilent Tune Mix from the manufacturer (Cat No.: G2421-60001, Agilent Technologies).
In vitro hepatocyte clearance (Clin vitro) of each chemical was estimated by substrate depletion approach assuming first-order kinetics for compound elimination: Clin vitro = kV/N, where k = first-order elimination rate constant, V = incubation volume, and N = number of cells in the incubation. Clin vitro was further scaled up to the intrinsic hepatocyte clearance (Clint) according to the equation [38]:Clint = Clin vitro × HPGL × Vl(1) where HPGL = hepatocytes per gram liver (137 × 10^6 cells/g) and Vl = volume of the whole liver (1820 g).

Row | Compound | Clearance rate in suspension cultures [1] [µL/min/10^6 hepatocytes] | CLHep average, Nontargeted Analyses (IMS-MS) [2] [µL/min/106 hepatocytes] | Level of metabolism through nontargeted methods ([2]; 1 µM mixture) | Metabolite formation (IMS-MS abundance) ([2]; 1 µM mixture, relative abundance among the five detected metabolites)
1 | CCOP(=S)(OCC)Oc1cc(C)nc(C(C)C)n1 [Diazinon] | 5 to 14 | 2.285 | – | –
2 | COP(=S)(OC)SCn1nnc2ccccc2c1=O [Azinphos-methyl] | 5 to 14 | 8.987 | high levels of metabolism | –
3 | O=[N+]([O-])c1ccc(O)c([N+](=O)[O-])c1 [2,4-Dinitrophenol] | 5 to 14 | 8.886 | high levels of metabolism | –
4 | CCOP(=S)(OCC)SCCSCC [Disulfoton] | 5 to 14 | 5.305 | high levels of metabolism | –
5 | CCOP(O)(=S)OCC [diethylthiophosphate] | – | – | – | formed at the highest amount
6 | CCOP(=S)(OCC)SCSP(=S)(OCC)OCC [Ethion] | 5 to 14 | 5.216 | high levels of metabolism | –
7 | CCOP(=S)(OCC)Oc1nc(Cl)c(Cl)cc1Cl [Chlorpyrifos] | 5 to 14 | 7.82 | high levels of metabolism | –
